# Results published in patent publication US9932646B2, “Detection and use of antiviral resistance mutations” (ABL SA, priority 2006, dated 2018).
# “Also recorded” adds a separate entry of the source. Counter-ions that a name gives are not always drawn.
# Experiments:
# HBV [1] = test: Clinical response / resistance of HBV patients to nucleoside or nucleotide analog treatment; assay type: in vivo, human
# Excerpt: The present invention is predicated in part on the identification and isolation of nucleoside or nucleotide analog-resistant variants of HBV following treatment of patients with either ADV or LMV or ETV or more particularly ADV and LMV or TFV and LMV, or ETV and optionally one or more other nucleoside analogs or nucleotide analogs or other anti-HBV agents such as TFV, LdT, or FTC. […] Reference herein to “decreased” or “reduced” in relation to sensitivity to ADV and/or LMV and/or FTC and/or TFV and/or ETV includes and encompasses a complete or substantial resistance to the nucleoside or nucleotide analog or other anti-HBV agents as well as partial resistance and includes a replication rate or replication efficiency which is more than a wild-type in the presence of a nucleoside or nucleotide analog or other anti-HBV agents. In one aspect, this is conveniently measured by an increase in viral load during treatment, or alternatively, there is no substantial decrease in HBV DNA viral load from pre-treatment HBV DNA levels during treatment (i.e., non-response to treatment).
# Hepatitis B surface antigen (HBsAg), hepatitis B e antigen (HBeAg), anti-HBe and hepatitis B core antigen (HBcAg) specific IgG and IgM were measured using commercially available immunoassays (Abbott Laboratories, North Chicago, Ill., USA). Hepatitis B viral DNA levels were measured using a capture hybridization assay according to the manufacturer's directions (Digene Hybrid Capture II, Digene Diagnostics Inc., Beltsville, Md.). The manufacturers stated cut-off for detecting HBV viremia in clinical specimens was 0.7×10^6 copies/ml or 2.5 pg/ml, [Hendricks et al, Am J Clin Pathol 104:537-46, 1995]. HBV DNA levels can also be quantitated using other commercial kits such as Cobas amplification HBV monitor kit (Roche). […]
# The specific amplified products were purified using PCR purification columns from MO BIO Laboratories Inc (La Jolla, Calif.) and directly sequenced using Big Dye terminator Cycle sequencing Ready Reaction Kit (Perkin Elmer, Cetus Norwalk, Conn.). […]
# HBV [2] = conditions: cited from earlier work
# HBV [3] = conditions: cited from earlier work; remark: listed apart in the source
# [4] = ALT in patients during antiviral therapy; assay type: in vivo, human; conditions: Patient G, ADV therapy
# HIV = conditions: cited from earlier work
structure (smiles),measurement,setting,value
"CC(C)(C)C(=O)OCOP(=O)(COCCn1cnc2c(N)ncnc21)OCOC(=O)C(C)(C)C [ADV, adefovir dipivoxil]",response to treatment,"HBV [1]; human, in vivo",resistant; also recorded: did not respond
same,clinical activity against both wild-type and lamivudine-resistant strains of HBV,HBV [2]; in vivo,demonstrated clinical activity
same,mean decrease in viremia,"HBV [2]; phase II studies, 30 mg daily dose, over 12 weeks",4 log10
same,inhibition of HBV replication,HBV [3],potent inhibitor
same,ALT,[4],467 IU/ml
"C=C1[C@H](CO)[C@@H](O)C[C@@H]1n1cnc2c(=O)[nH]c(N)nc21 [ETV, entecavir]",response to treatment,"HBV [1]; Patient H, sequential then combination treatment",resistant
same,response to treatment,"HBV [1]; Patient J, previously treated with LMV, then ADV, then ETV",did not respond
"Nc1nc(=O)n([C@@H]2CS[C@H](CO)O2)cc1F [FTC, (−)-β-L-2′-3′-dideoxy-5-fluoro-3′-thiacydidine]",activity against HIV,HIV,activity
same,activity against HBV,HBV [3],activity
"Nc1ncnc2c1ncn2C1CC(O)C(CO)O1 [LdA, beta-L-2′-deoxyadenosine]",activity against HBV,HBV [3],activity
"Nc1ccn([C@@H]2C[C@@H](O)[C@H](CO)O2)c(=O)n1 [LdC, beta-L-2′-deoxycytidine]",activity against HBV,HBV [3],activity
"Cc1cn([C@@H]2C[C@@H](O)[C@H](CO)O2)c(=O)[nH]c1=O [LdT, beta-Lthymidine]",activity against HBV,HBV [3],activity
"CC(C)OC(=O)OCOP(=O)(CO[C@H](C)Cn1cnc2c(N)ncnc21)OCOC(=O)OC(C)C [TFV, tenofovir disoproxil fumarate]",activity against HIV,HIV,antiviral activity
same,activity against HBV,HBV [3],antiviral activity
same,inhibition of HBV replication,HBV [3],potent inhibitor
